ChEMBL document CHEMBL1140860, “Synthesis and evaluation of dihydroartemisinin and dihydroartemisitene acetal dimers showing anticancer and antiprotozoal activity” (Bioorg Med Chem, 2009)
pIC50: −log10 of the molar value.

Legend:
OVCAR-8 = assay: Growth inhibition of human OVCAR8 cells after 48 hrs by sulforhodamine B assay; assay type: functional; settings: OVCAR-8, 48 h
T47D = assay: Growth inhibition of human T47D cells after 48 hrs by sulforhodamine B assay; assay type: functional
[1] = Selectivity index, ratio of TC50 for african green monkey (Cercopithecus aethiops) Vero cells to IC50 for chloroquine-sensitive Plasmodium falciparum D6; assay type: toxicity, cell-based
Malme-3M = assay: Growth inhibition of human MALME-3M cells after 48 hrs by sulforhodamine B assay; assay type: functional
IGROV-1 = assay: Growth inhibition of human IGROV1 cells after 48 hrs by sulforhodamine B assay; assay type: functional; settings: IGROV-1, 48 h
ACHN = assay: Growth inhibition of human ACHN cells after 48 hrs by sulforhodamine B assay; assay type: functional
A549 = assay: Growth inhibition of human A549 cells after 48 hrs by sulforhodamine B assay; assay type: functional; settings: A549, 48 h
NCI-H522 = assay: Growth inhibition of human NCI-H522 cells after 48 hrs by sulforhodamine B assay; assay type: functional; settings: NCI-H522, 48 h
K562 = assay: Growth inhibition of human K562 cells after 48 hrs by sulforhodamine B assay; assay type: functional; settings: K562, 48 h
SW-620 = assay: Growth inhibition of human SW620 cells after 48 hrs by sulforhodamine B assay; assay type: functional; settings: SW-620, 48 h
NCI-H322M = assay: Growth inhibition of human NCI-H322M cells after 48 hrs by sulforhodamine B assay; assay type: functional
[2] = Growth inhibition of human Hs 578T cells after 48 hrs by sulforhodamine B assay; assay type: functional
HCT-116 = assay: Growth inhibition of human HCT116 cells after 48 hrs by sulforhodamine B assay; assay type: functional; settings: HCT-116, 48 h
HL-60 = assay: Growth inhibition of human HL-60(TB) cells after 48 hrs by sulforhodamine B assay; assay type: functional; settings: HL-60, 48 h
HCC 2998 = assay: Growth inhibition of human HCC2998 cells after 48 hrs by sulforhodamine B assay; assay type: functional; settings: HCC 2998, 48 h
OVCAR-5 = assay: Growth inhibition of human OVCAR5 cells after 48 hrs by sulforhodamine B assay; assay type: functional; settings: OVCAR-5, 48 h
DU-145 = assay: Growth inhibition of human DU145 cells after 48 hrs by sulforhodamine B assay; assay type: functional; settings: DU-145, 48 h
[3] = Growth inhibition of human […] cells after 48 hrs by sulforhodamine B assay; assay type: functional
Plasmodium falciparum [4] = assay: Antimalarial activity after 72 hrs against chloroquine-sensitive Plasmodium falciparum D6 infected in erythrocytes by LDH assay; assay type: functional, organism-based; settings: D6, 72 h
SN12C = assay: Growth inhibition of human SN12C cells after 48 hrs by sulforhodamine B assay; assay type: functional
SK-MEL-5 = assay: Growth inhibition of human SK-MEL-5 cells after 48 hrs by sulforhodamine B assay; assay type: functional; settings: SK-MEL-5, 48 h
SR = assay: Growth inhibition of human SR cells after 48 hrs by sulforhodamine B assay; assay type: functional
SK-OV-3 = assay: Growth inhibition of human SKOV3 cells after 48 hrs by sulforhodamine B assay; assay type: functional; settings: SK-OV-3, 48 h
SNB-75 = assay: Growth inhibition of human SNB75 cells after 48 hrs by sulforhodamine B assay; assay type: functional; settings: SNB-75, 48 h
SF-268 = assay: Growth inhibition of human SF268 cells after 48 hrs by sulforhodamine B assay; assay type: functional; settings: SF-268, 48 h
UACC-257 = assay: Growth inhibition of human UACC257 cells after 48 hrs by sulforhodamine B assay; assay type: functional; settings: UACC-257, 48 h
OVCAR-4 = assay: Growth inhibition of human OVCAR4 cells after 48 hrs by sulforhodamine B assay; assay type: functional; settings: OVCAR-4, 48 h
SF-539 = assay: Growth inhibition of human SF539 cells after 48 hrs by sulforhodamine B assay; assay type: functional; settings: SF-539, 48 h
SF-295 = assay: Growth inhibition of human SF295 cells after 48 hrs by sulforhodamine B assay; assay type: functional; settings: SF-295, 48 h
PC-3 = assay: Growth inhibition of human PC3 cells after 48 hrs by sulforhodamine B assay; assay type: functional; settings: PC-3, 48 h
KM12 = assay: Growth inhibition of human KM12 cells after 48 hrs by sulforhodamine B assay; assay type: functional; settings: KM12, 48 h
MOLT-4 = assay: Growth inhibition of human MOLT4 cells after 48 hrs by sulforhodamine B assay; assay type: functional; settings: MOLT-4, 48 h
UO-31 = assay: Growth inhibition of human UO31 cells after 48 hrs by sulforhodamine B assay; assay type: functional; settings: UO-31, 48 h
Plasmodium falciparum [5] = assay: Antimalarial activity after 72 hrs against chloroquine-resistant Plasmodium falciparum W2 infected erythrocytes by LDH assay; assay type: functional, organism-based; settings: W2, 72 h
HOP-92 = assay: Growth inhibition of human HOP92 cells after 48 hrs by sulforhodamine B assay; assay type: functional; settings: HOP-92, 48 h
BT-549 = assay: Growth inhibition of human BT549 cells after 48 hrs by sulforhodamine B assay; assay type: functional; settings: BT-549, 48 h
MDA-N = assay: Growth inhibition of human MDA-N cells after 48 hrs by sulforhodamine B assay; assay type: functional
[6] = Cytotoxicity against african green monkey Vero cells after 48 hrs by neutral red assay; assay type: cell-based; settings: chlorocebus sabaeus, read-out: TC50
NCI-H226 = assay: Growth inhibition of human NCI-H226 cells after 48 hrs by sulforhodamine B assay; assay type: functional; settings: NCI-H226, 48 h
SNB-19 = assay: Growth inhibition of human SNB19 cells after 48 hrs by sulforhodamine B assay; assay type: functional; settings: SNB-19, 48 h
MDA-MB-231 = assay: Growth inhibition of human MDA-MB-231 cells after 48 hrs by sulforhodamine B assay; assay type: functional; settings: MDA-MB-231, 48 h
EKVX = assay: Growth inhibition of human EKVX cells after 48 hrs by sulforhodamine B assay; assay type: functional
A498 = assay: Growth inhibition of human A498 cells after 48 hrs by sulforhodamine B assay; assay type: functional; settings: A498, 48 h
NCI-H23 = assay: Growth inhibition of human NCI-H23 cells after 48 hrs by sulforhodamine B assay; assay type: functional; settings: NCI-H23, 48 h
LOX IMVI = assay: Growth inhibition of human LOXIMVI cells after 48 hrs by sulforhodamine B assay; assay type: functional
OVCAR-3 = assay: Growth inhibition of human OVCAR-3 cells after 48 hrs by sulforhodamine B assay; assay type: functional; settings: OVCAR-3, 48 h
NCI-H460 = assay: Growth inhibition of human NCI-H460 cells after 48 hrs by sulforhodamine B assay; assay type: functional; settings: NCI-H460, 48 h
MCF7 = assay: Growth inhibition of human MCF7 cells after 48 hrs by sulforhodamine B assay; assay type: functional; settings: MCF7, 48 h
UACC-62 = assay: Growth inhibition of human UACC62 cells after 48 hrs by sulforhodamine B assay; assay type: functional; settings: UACC-62, 48 h
CAKI-1 = assay: Growth inhibition of human Caki1 cells after 48 hrs by sulforhodamine B assay; assay type: functional; settings: CAKI-1, 48 h
SK-MEL-2 = assay: Growth inhibition of human SK-MEL-2 cells after 48 hrs by sulforhodamine B assay; assay type: functional; settings: SK-MEL-2, 48 h

Work on C[C@H]1[C@@H](O[C@H]2CC[C@@H](O[C@H]3O[C@@H]4O[C@@]5(C)CC[C@H]6[C@H](C)CC[C@@H]([C@H]3C)[C@@]46OO5)CC2)O[C@@H]2O[C@@]3(C)CC[C@H]4[C@H](C)CC[C@@H]1[C@@]24OO3 yielded a GI50 (OVCAR-8) of 0.019 µM, a GI50 (T47D) of less than 0.005 µM and a selectivity ratio [1] greater than 1590. For the same compound, the GI50 (Malme-3M) was 0.044 µM, the GI50 (IGROV-1) was 6.75 µM and the GI50 (ACHN) was 0.027 µM. It also gave a GI50 (A549) of 0.02 µM, a GI50 (NCI-H522) of 0.021 µM and a GI50 (K562) of 0.014 µM. For the same compound, the GI50 (SW-620) was 0.012 µM, the GI50 (NCI-H322M) was 16.6 µM and the GI50 [2] was 0.049 µM. The GI50 (HCT-116) was 0.016 µM, the GI50 (HL-60) was 0.017 µM and the GI50 (HCC 2998) was 0.018 µM. For the same compound, the GI50 (OVCAR-5) was 0.152 µM, the GI50 (DU-145) was 0.028 µM and the GI50 [3] was less than 0.005 µM. For the same compound, the pIC50 (Plasmodium falciparum [4]) was 5.34, the GI50 (SN12C) was 0.025 µM and the GI50 (SK-MEL-5) was 0.017 µM. The GI50 (SR) was 0.014 µM, the GI50 (SK-OV-3) was 0.034 µM and the GI50 (SNB-75) was 0.03 µM. The GI50 (SF-268) was 0.034 µM, the GI50 (UACC-257) was 0.027 µM and the GI50 (OVCAR-4) was 0.024 µM. For the same compound, the GI50 (SF-539) was 0.02 µM, the GI50 (SF-295) was 0.028 µM and the GI50 (PC-3) was 0.011 µM. For the same compound, the GI50 (KM12) was 0.012 µM, the GI50 (MOLT-4) was 0.02 µM and the GI50 (UO-31) was 0.018 µM. The pIC50 (Plasmodium falciparum [5]) was 5.10, the GI50 (HOP-92) was 0.017 µM and the GI50 (BT-549) was 0.042 µM. The GI50 (MDA-N) was 0.024 µM, the CC50 at 48 h [6] was greater than 7340 µM and the GI50 (NCI-H226) was 0.347 µM. For the same compound, the GI50 (SNB-19) was 0.099 µM, the GI50 (MDA-MB-231) was 0.092 µM and the GI50 (EKVX) was 0.024 µM. For the same compound, the GI50 (A498) was 0.04 µM, the GI50 (NCI-H23) was 0.022 µM and the GI50 (LOX IMVI) was 0.017 µM. The GI50 (OVCAR-3) was 0.015 µM, the GI50 (NCI-H460) was 0.017 µM and the GI50 (MCF7) was 0.016 µM. It also gave a GI50 (UACC-62) of 0.022 µM, a GI50 (CAKI-1) of 0.037 µM and a GI50 (SK-MEL-2) of 0.024 µM.
With C[C@H]1[C@@H](O[C@H]2CC[C@H](O[C@H]3O[C@@H]4O[C@@]5(C)CC[C@H]6[C@H](C)CC[C@@H]([C@H]3C)[C@@]46OO5)CC2)O[C@@H]2O[C@@]3(C)CC[C@H]4[C@H](C)CC[C@@H]1[C@@]24OO3 the GI50 (OVCAR-8) was 0.057 µM, the GI50 (T47D) was less than 0.01 µM and the selectivity ratio [1] was 1360. For the same compound, the GI50 (Malme-3M) was 0.071 µM, the GI50 (IGROV-1) was 0.055 µM and the GI50 (ACHN) was 0.042 µM. The GI50 (A549) was 0.0188 µM, the GI50 (NCI-H522) was 0.036 µM and the GI50 (K562) was 0.041 µM. For the same compound, the GI50 (SW-620) was 0.024 µM, the GI50 (NCI-H322M) was 0.672 µM and the GI50 [2] was 0.063 µM. It also gave a GI50 (HCT-116) of less than 0.01 µM, a GI50 (HL-60) of 0.032 µM and a GI50 (HCC 2998) of 0.018 µM. The GI50 (OVCAR-5) was 0.042 µM, the GI50 (DU-145) was 0.34 µM and the GI50 [3] was less than 0.01 µM. For the same compound, the pIC50 (Plasmodium falciparum [4]) was 5.27, the GI50 (SN12C) was 0.097 µM and the GI50 (SK-MEL-5) was 0.049 µM. For the same compound, the GI50 (SR) was 0.306 µM, the GI50 (SK-OV-3) was 0.166 µM and the GI50 (SNB-75) was 0.202 µM. The GI50 (SF-268) was 0.108 µM, the GI50 (UACC-257) was 0.074 µM and the GI50 (OVCAR-4) was 0.053 µM. For the same compound, the GI50 (SF-539) was 0.092 µM, the GI50 (SF-295) was 0.061 µM and the GI50 (PC-3) was less than 0.01 µM. It also gave a GI50 (KM12) of 0.011 µM, a GI50 (MOLT-4) of 0.099 µM and a GI50 (UO-31) of 0.123 µM. The pIC50 (Plasmodium falciparum [5]) was 4.88, the GI50 (HOP-92) was 0.021 µM and the GI50 (BT-549) was 0.021 µM. The GI50 (MDA-N) was 0.077 µM, the CC50 at 48 h [6] was greater than 7340 µM and the GI50 (NCI-H226) was 0.025 µM. The GI50 (SNB-19) was 0.372 µM, the GI50 (MDA-MB-231) was 0.52 µM and the GI50 (EKVX) was 0.028 µM. The GI50 (A498) was 0.376 µM, the GI50 (NCI-H23) was 0.043 µM and the GI50 (LOX IMVI) was 0.013 µM. For the same compound, the GI50 (OVCAR-3) was 0.067 µM, the GI50 (NCI-H460) was 0.028 µM and the GI50 (MCF7) was 0.042 µM. It also gave a GI50 (UACC-62) of 0.045 µM, a GI50 (CAKI-1) of 0.326 µM and a GI50 (SK-MEL-2) of 0.296 µM.
